From US10815235B2, “Polycyclic compounds and uses thereof” (priority 2017, dated 2020)
Where two headings read alike, the source gives them in different places.

What was measured:
[1] = molecular target: Serotonin 5-HT1D receptor (Homo sapiens, UniProt P28221); experiment: GTPγS Scintillation Proximity Assay, agonist and antagonist mode; assay type: biochemical
Experimental: (§1) Antagonist and agonist activities were determined using a GTPγS Scintillation Proximity Assay. The assay was prepared as follows: Membrane extracts were prepared from recombinant human Dopamine D2L, D3; Serotonin 5-HT1A, 5-HT1B, 5-HT1D and 5-HT1F receptors.
(§2) Samples were tested by proprietary biological assays by Ogeda S. A., Euroscreen FAST Business Unit, Rue Adrienne Bolland, 47 B-6041 Gosselies, Belgium. Each protein assay was prepared using the following conditions.
5-HT1D • Assay buffer: 20 mM HEPES pH 7.4; 200 mM NaCl, 10 μg/ml saponin, 3 mM MgCl2; • Membranes: recombinant 5-HT1D membrane extracts thawed on ice and diluted in assay buffer to give […] and kept on ice; • GDP: diluted in assay buffer to give a 30 μM working solution (3 μM final concentration); • Beads: PVT-WGA (Perkin Elmer, RPNQ001), diluted in assay buffer at 50 mg/ml (0.5 mg/10 μl); and • GTPγ^35S: (PerkinElmer NEG030X), diluted in assay buffer to give 0.1 nM.
(§3) Membranes were mixed with GDP (volume:volume 1:1) and incubated for at least 15 min on ice. In parallel, GTPγ[^35S] is mixed with the beads (volume:volume 1:1) just before starting the reaction.
(§4) To determine agonist activity, the following reagents were added in the wells of an Optiplate (Perkin Elmer): 50 μL of test or reference ligand, 10 μL of assay buffer, 20 μl of the membranes:GDP mix, and 20 μL of the GTPγ[^35S]:beads mix. EC50 values were used to determine whether a compound acted as an agonist.
(§5) To determine antagonist activity, the following reagents were added in the wells of an Optiplate (Perkin Elmer): 50 μL of test or reference ligand, 20 μL of the membranes:GDP mix, then the plate is incubated 15 minutes at room temperature. After incubation, 10 μL of reference agonist at historical EC80 (final concentration) was added, followed by 20 μL of the GTPγ[^35S]:beads mix.
(§6) The plates were covered with a top seal, mixed on an orbital shaker for 2 min, and then incubated for 1 hour at room temperature. Then the plates were centrifuged for 10 min at 2000 rpm, incubated at room temperature 1 hour and counted for 1 min/well with a PerkinElmer TopCount reader. IC50 values were used to determine whether a compound acted as an antagonist.

Dopamine D2L receptor = Dopamine D2L receptor (Homo sapiens, UniProt P14416); experiment: as above; assay type: biochemical
Chain of Dopamine D2L receptor (P14416 whole entry): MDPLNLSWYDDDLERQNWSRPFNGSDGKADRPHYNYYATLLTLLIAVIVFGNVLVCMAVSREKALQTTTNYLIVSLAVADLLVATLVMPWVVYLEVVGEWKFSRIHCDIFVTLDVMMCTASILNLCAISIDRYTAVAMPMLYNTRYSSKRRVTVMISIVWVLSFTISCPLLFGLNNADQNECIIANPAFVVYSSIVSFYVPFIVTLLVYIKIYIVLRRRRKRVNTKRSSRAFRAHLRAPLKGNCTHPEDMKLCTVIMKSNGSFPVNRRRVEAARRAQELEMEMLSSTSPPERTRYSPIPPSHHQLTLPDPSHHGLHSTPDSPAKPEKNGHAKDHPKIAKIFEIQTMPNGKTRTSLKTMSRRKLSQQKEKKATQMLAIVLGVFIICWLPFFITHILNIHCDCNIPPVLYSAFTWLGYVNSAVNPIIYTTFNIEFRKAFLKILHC
Experimental: as §1, §2
(§7) D2L • Assay buffer: 20 mM HEPES pH 7.4; 100 mM NaCl, 10 μg/ml saponin, 30 mM MgCl2, 0.1% protease-free BSA; • Membranes: recombinant D2L membrane extracts thawed on ice and diluted in assay buffer to give 1 mg/ml (10 μg/well) and kept on ice; • GDP: diluted in assay buffer to give a 3 μM final assay concentration; • Beads: PVT-WGA (Perkin Elmer, RPNQ001), diluted in assay buffer at 25 mg/ml (0.25 mg/well); and • GTPγ^35S: (PerkinElmer NEG030X), diluted in assay buffer to give 0.1 nM. D3 • Assay buffer: 20 mM HEPES pH 7.4; 100 mM NaCl, 10 μg/ml saponin, 1 mM MgCl2, 0.1% protease-free BSA; • Membranes: recombinant D3 membrane extracts thawed on ice and diluted in assay buffer to give 1 mg/ml (10 μg/well) and kept on ice; • GDP: diluted in assay buffer to give a 1 μM final assay concentration; • Beads: PVT-WGA (Perkin Elmer, RPNQ001), diluted in assay buffer at 50 mg/ml (0.5 mg/well); and • GTPγ^35S: (PerkinElmer NEG030X), diluted in assay buffer to give 0.1 nM.
as §3, §4, §5, §6

Dopamine D3 receptor = Dopamine D3 receptor (Homo sapiens, UniProt P35462); experiment: as above; assay type: biochemical
Chain of Dopamine D3 receptor (P35462 whole entry): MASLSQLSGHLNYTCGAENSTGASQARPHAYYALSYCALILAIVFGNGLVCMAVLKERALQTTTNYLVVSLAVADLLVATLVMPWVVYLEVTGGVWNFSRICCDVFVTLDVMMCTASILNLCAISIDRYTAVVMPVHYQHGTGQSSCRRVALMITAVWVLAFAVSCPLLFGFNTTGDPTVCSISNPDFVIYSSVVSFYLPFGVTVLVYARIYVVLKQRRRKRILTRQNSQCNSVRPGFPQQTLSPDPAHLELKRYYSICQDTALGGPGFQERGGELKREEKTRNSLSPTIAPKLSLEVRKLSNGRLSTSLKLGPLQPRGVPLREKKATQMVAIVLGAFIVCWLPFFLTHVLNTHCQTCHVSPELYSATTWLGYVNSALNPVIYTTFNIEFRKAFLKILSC
Experimental: as §1, §2, §7, §3, §4, §5, §6

Serotonin 5-HT7 receptor = molecular target: T1, Serotonin 5-HT7 receptor (Homo sapiens, UniProt P34969); experiment: cAMP HTRF Assay for Gs Coupled Receptors, agonist and antagonist mode; assay type: cell-based
T1 construct: expressed in transfected cells; host or cells: CHO-K1
T1 sequence (P34969 whole entry): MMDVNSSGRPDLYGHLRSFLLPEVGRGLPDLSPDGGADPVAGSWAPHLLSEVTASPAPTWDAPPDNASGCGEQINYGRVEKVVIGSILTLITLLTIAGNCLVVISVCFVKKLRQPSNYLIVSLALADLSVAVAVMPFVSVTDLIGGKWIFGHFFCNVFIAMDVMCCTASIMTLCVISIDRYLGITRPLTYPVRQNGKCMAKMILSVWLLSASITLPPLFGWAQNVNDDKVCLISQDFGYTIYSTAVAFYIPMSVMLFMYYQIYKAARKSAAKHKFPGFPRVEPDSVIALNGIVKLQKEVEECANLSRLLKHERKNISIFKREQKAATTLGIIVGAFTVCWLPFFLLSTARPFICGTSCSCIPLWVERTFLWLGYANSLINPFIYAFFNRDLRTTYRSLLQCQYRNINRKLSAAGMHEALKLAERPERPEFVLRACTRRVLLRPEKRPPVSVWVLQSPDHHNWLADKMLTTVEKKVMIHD
Experimental: Antagonist and agonist activities were shown using a cAMP HTRF Assay for Gs Coupled Receptors. The assay was prepared as follows: CHO-K1 cells expressing recombinant human and Serotonin 5-HT7 receptors were grown, prior to analysis, in media without antibiotic. The cells were detached by gentle flushing with PBS-EDTA (5 mM EDTA), recovered by centrifugation, and resuspended in assay buffer (KRH: 5 mM KCl, 1.25 mM MgSO4, 124 mM NaCl, 25 mM HEPES, 13.3 mM Glucose, 1.25 mM KH2PO4, 1.45 mM CaCl2, 0.5 g/l BSA).
To determine agonist activity (96 well), 12 μL of cells were mixed with 12 μL of the test compound at increasing concentrations and then incubated 30 min at room temperature. After addition of the lysis buffer and 1 hour incubation, cAMP concentrations were estimated according to the manufacturer specification.
Antagonist activity was determined in 96 well plates: 12 μL of cells were mixed with 6 μL of the test compound at increasing concentrations and then incubated 10 min. Thereafter 6 μL of the reference agonist was added at a final concentration corresponding to the historical EC80. The plates were then incubated for 30 min at room temperature. After addition of the lysis buffer and 1 hour incubation, cAMP concentrations were estimated according to the manufacturer specification. IC50 values were used to determine whether a compound acted as an antagonist.

[2] = Antagonist Activity (IC50), 5-HT1D, membrane extracts, vs reference agonist at EC80
[3] = IC50 value for the Serotonin 5-HT1D receptor, antagonist mode, bound stated
[4] = Agonist Activity (EC50), D2L, membrane extracts
[5] = Antagonist Activity (IC50), D2L, membrane extracts, vs reference agonist at EC80
[6] = EC50 value for the Dopamine D2L receptor, agonist mode, bound stated
[7] = IC50 value for the Dopamine D2L receptor, antagonist mode, bound stated
[8] = Antagonist Activity (IC50), D3, membrane extracts, vs reference agonist at EC80
[9] = IC50 value for the Dopamine D3 receptor, antagonist mode, bound stated
[10] = Antagonist Activity (IC50), 5-HT7, CHO-K1 cells, vs reference agonist at EC80
[11] = IC50 value for the Serotonin 5-HT7 receptor, antagonist mode, bound stated
[12] = Agonist Activity (EC50), D3, membrane extracts
[13] = EC50 value for the Dopamine D3 receptor, agonist mode, bound stated

Chain of Serotonin 5-HT1D receptor (P28221 whole entry): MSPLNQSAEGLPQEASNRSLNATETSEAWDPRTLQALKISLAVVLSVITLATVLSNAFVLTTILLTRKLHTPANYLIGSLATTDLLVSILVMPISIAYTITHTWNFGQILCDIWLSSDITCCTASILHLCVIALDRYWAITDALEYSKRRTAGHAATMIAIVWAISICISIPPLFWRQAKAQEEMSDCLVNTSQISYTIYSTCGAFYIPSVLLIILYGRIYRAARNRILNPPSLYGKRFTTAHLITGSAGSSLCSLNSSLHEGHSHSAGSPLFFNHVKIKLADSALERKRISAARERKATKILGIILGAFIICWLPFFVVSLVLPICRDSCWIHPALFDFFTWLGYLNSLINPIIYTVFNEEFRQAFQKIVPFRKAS

SMILES	IC50 [1, 2]	IC50 [1, 3]	EC50 (Dopamine D2L receptor; [4])	IC50 (Dopamine D2L receptor; [5])	EC50 (Dopamine D2L receptor; [6])	IC50 (Dopamine D2L receptor; [7])	IC50 (Dopamine D3 receptor; [8])	IC50 (Dopamine D3 receptor; [9])	IC50 (Serotonin 5-HT7 receptor; [10])	IC50 (Serotonin 5-HT7 receptor; [11])	IC50 ([1]; membrane extracts, vs reference agonist at EC80, read-out: Antagonist Activity (IC50), 5-HT1D)	IC50 (Dopamine D2L receptor; membrane extracts, vs reference agonist at EC80, read-out: Antagonist Activity (IC50), D2L)	IC50 (Dopamine D3 receptor; membrane extracts, vs reference agonist at EC80, read-out: Antagonist Activity (IC50), D3)	IC50 (Serotonin 5-HT7 receptor; CHO-K1 cells, vs reference agonist at EC80, read-out: Antagonist Activity (IC50), 5-HT7)	EC50 (Dopamine D3 receptor; [12])	EC50 (Dopamine D3 receptor; [13])	EC50 ([1]; Agonist Activity (EC50), 5-HT1D, membrane extracts)	EC50 ([1]; EC50 value for the Serotonin 5-HT1D receptor, agonist mode, bound stated)	EC50 (Serotonin 5-HT7 receptor)
CCN(CC)C(=O)N[C@H]1C[C@@H]2c3cccc4[nH]c(Br)c(c34)C[C@H]2N(C)C1 [Compound A8H, 3-((6aR,9S, 10aR)-5-bromo-7-methyl-4,6,6a,7,8,9,10,10a-octahydroindolo[4,3-fg]quinolin-9-yl)-1,1-diethylurea]	8 nM	< 1000 nM	1.1 nM	3.5 nM	< 1000 nM	< 1000 nM	9.3 nM	< 1000 nM	110 nM	< 1000 nM	–	–	–	–	–	–	–	–	–
CCN(CC)C(=O)N[C@H]1C[C@@H]2c3cccc4[nH]c(C(F)(F)F)c(c34)C[C@H]2N(C)C1 [Compound A9H, 1,1-diethyl-3-((6aR,9S,10aR)-7-methyl-5-(trifluoromethyl)-4,6,6a,7,8,9,10,10a-octahydroindolo[4,3-fg]quinolin-9-yl)urea]	10 nM	< 1000 nM	4.6 nM	42 nM	< 1000 nM	< 1000 nM	13 nM	< 1000 nM	190 nM	< 1000 nM	–	–	–	–	–	–	–	–	–
CCN(CC(F)(F)F)C(=O)N[C@H]1C[C@@H]2c3cccc4[nH]c(C(F)(F)F)c(c34)C[C@H]2N(C)C1 [Compound A16H, 1-ethyl-3-((6aR,9S,10aR)-7-methyl-5-(trifluoromethyl)-4,6,6a,7,8,9,10,10a-octahydroindolo[4,3-fg]quinolin-9-yl)-1-(2,2,2-trifluoroethyl)urea]	–	< 1000 nM	–	–	–	< 1000 nM	–	< 1000 nM	–	< 1000 nM	14 nM	130 nM	55 nM	380 nM	–	–	–	–	–
CCN(CC(F)(F)F)C(=O)N[C@H]1C[C@@H]2c3cccc4[nH]c(C5CC5)c(c34)C[C@H]2N(C)C1 [Compound A17H, 3-((6aR,9S,10aR)-5-cyclopropyl-7-methyl-4,6,6a,7,8,9,10,10a-octahydroindolo[4,3-fg]quinolin-9-yl)-1-ethyl-1-(2,2,2-trifluoroethyl)urea]	50 nM	< 1000 nM	1.1 nM	4.2 nM	–	< 1000 nM	11 nM	< 1000 nM	140 nM	< 1000 nM	–	–	–	–	8.2 nM	< 1000 nM	–	–	–
CC[C@@H](CO)NC(=O)[C@@H]1C[C@@H]2c3cccc4c3c(c(C3CC3)n4C)C[C@H]2N(C)C1 [Compound D13H, (6aR,9R,10aR)-5-cyclopropyl-N—((S)-1-hydroxybutan-2-yl)-4,7-dimethyl-4,6,6a,7,8,9,10,10a-octahydroindolo[4,3-fg]quinoline-9-carboxamide]	–	–	170 nM	–	< 1000 nM	–	400 nM	< 1000 nM	780 nM	< 1000 nM	–	–	–	–	48 nM	< 1000 nM	11 nM	< 1000 nM	40 nM
